Experimental findings from ChEMBL document CHEMBL1201862, “PubChem BioAssay data set” (2004) are described below.

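1) Cells in 96-well plates. 2) Compound, 48 h, 5 concentrations. 3) Linear interpolation between surrounding doses. 4) Unreached endpoint = highest concentration. Abbreviation: GI50, concentration required for 50% inhibition of growth.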 Calls of active or inactive are those of the source. Rule as the data show it: active = GI50 up to about 1.1 µM and inactive = higher.

Test systems include A498; ACHN; CCRF-CEM; HCC 2998; HCT-116; IGROV-1; LOX IMVI; M14; MOLT-4; NCI-H226; OVCAR-4; RXF 393; SK-MEL-2; SK-MEL-5; SNB-19; UO-31; HT-29; NCI/ADR-RES; OVCAR-3.
Holding throughout (assay): growth of human tumour cells (NCI), 48 h

As to `CC1=CC(=O)c2c(C=O)c(O)c(O)c(C(C)C)c2C1=O`, the GI50 with A498 is 24.4 µM (inactive); in the experiment with ACHN it was 16.8 µM (inactive); with CCRF-CEM, 14.7 µM (inactive); in the experiment with HCC 2998, 29.3 µM (inactive); in the experiment on HCT-116, 18.3 µM (inactive); in the experiment on IGROV-1 it was 22.5 µM (inactive). The GI50 with LOX IMVI is 14.9 µM (inactive); in the experiment on M14 it was 31.3 µM (inactive); in the experiment on MOLT-4 it was 21.2 µM (inactive); with NCI-H226 it was 10.6 µM (inactive); in the experiment on OVCAR-4, 14.6 µM (inactive); in the experiment with RXF 393 it was 14 µM (inactive). The GI50 with SK-MEL-2 is 23.3 µM (inactive); with SK-MEL-5 it was 0.494 µM (active); in the experiment on SNB-19, 39.5 µM (inactive); with UO-31, 22 µM (inactive).

Consider `CCNCCC1(CC)C(=O)NC(=O)NC1=O`, for which the GI50 in the experiment with A498, in the experiment with ACHN, in the experiment on HCT-116, with HT-29, with IGROV-1 and in the experiment with LOX IMVI was > 100 µM (inactive) each time. The GI50 with M14, in the experiment with MOLT-4, in the experiment on NCI-H226, in the experiment on NCI/ADR-RES, with OVCAR-3 and with OVCAR-4 was > 100 µM (inactive) in each case. Also, the GI50 in the experiment with RXF 393, with SK-MEL-2, in the experiment on SK-MEL-5, in the experiment on SNB-19 and with UO-31 was > 100 µM (inactive) each time.

Consider `Cc1ccc(-c2nc3c(C(=O)NCCN(C)C)cccc3[nH]2)cc1`, for which the GI50 in the experiment on A498 was 13 µM (inactive); in the experiment on ACHN, 10.3 µM (inactive); in the experiment with CCRF-CEM it was 11.5 µM (inactive); with HCC 2998, 14.3 µM (inactive); with HCT-116, 5.06 µM (inactive); in the experiment on HT-29, 15.5 µM (inactive). The GI50 in the experiment with IGROV-1 was 15.9 µM (inactive); in the experiment on LOX IMVI, 11.1 µM (inactive); with M14 it was 15.8 µM (inactive); in the experiment with MOLT-4, 3.51 µM (inactive); in the experiment with NCI-H226, 11.9 µM (inactive); with OVCAR-3, 21.5 µM (inactive). Further, the GI50 was 22.9 µM (inactive) in the experiment with OVCAR-4; 10.7 µM (inactive) in the experiment with RXF 393; 18.5 µM (inactive) in the experiment with SK-MEL-2; 13.7 µM (inactive) in the experiment with SK-MEL-5; 26.1 µM (inactive) with SNB-19; 9.79 µM (inactive) with UO-31.

`CC(=O)Oc1c(C)c(-c2ccccc2)c(C)c(-c2ccccc2)c1C(=S)c1ccccc1`: the GI50 in the experiment on A498, in the experiment on ACHN, in the experiment on CCRF-CEM, with HCC 2998, in the experiment with HCT-116 and with HT-29 was > 100 µM (inactive) each time. Further, the GI50 with IGROV-1 is > 100 µM (inactive); with LOX IMVI it was > 100 µM (inactive); in the experiment with M14 it was > 100 µM (inactive); in the experiment on MOLT-4 it was 93.3 µM (inactive); in the experiment on NCI-H226, > 100 µM (inactive); with OVCAR-3, > 100 µM (inactive). Moreover, the GI50 in the experiment with RXF 393, with SK-MEL-2, in the experiment with SK-MEL-5, in the experiment on SNB-19 and with UO-31 was > 100 µM (inactive) each time.

On to `COc1cc2c(c(OC)c1OC)-c1ccc(SC)c(=O)cc1C(CC(=O)Oc1ccc(F)cc1)C2` (stereo not given), for which the GI50 in the experiment with A498 was 0.0374 µM (active); with ACHN, 0.18 µM (active); with CCRF-CEM, 0.238 µM (active); in the experiment on HCC 2998, 0.121 µM (active); with HCT-116, 0.0891 µM (active); in the experiment with HT-29, 0.164 µM (active). Moreover, the GI50 in the experiment on IGROV-1 is 0.605 µM (active); with LOX IMVI, 0.236 µM (active); with M14, 0.172 µM (active); in the experiment with MOLT-4 it was 0.436 µM (active); with NCI-H226, 0.231 µM (active); in the experiment with OVCAR-3, 0.134 µM (active). Moreover, the GI50 with OVCAR-4 is 0.741 µM (active); in the experiment on RXF 393, 0.0365 µM (active); in the experiment on SK-MEL-2 it was 0.23 µM (active); in the experiment with SK-MEL-5, 0.193 µM (active); with SNB-19, 0.255 µM (active); in the experiment with UO-31, 0.817 µM (active).

Consider `Cc1oc2nc(N(C)C)nc(NN)c2c1C`, for which the GI50 in the experiment with A498, in the experiment with ACHN, in the experiment with CCRF-CEM, in the experiment with HCC 2998, in the experiment on HCT-116 and in the experiment with HT-29 was > 100 µM (inactive) throughout. In addition, the GI50 with IGROV-1, in the experiment on M14, in the experiment on MOLT-4, with NCI-H226, in the experiment on NCI/ADR-RES and with OVCAR-3 was > 100 µM (inactive) throughout. Also, the GI50 in the experiment with OVCAR-4 was > 100 µM (inactive); with RXF 393 it was > 100 µM (inactive); in the experiment on SK-MEL-2 it was > 100 µM (inactive); with SK-MEL-5 it was > 100 µM (inactive); in the experiment on SNB-19, > 100 µM (inactive); in the experiment on UO-31, 61.7 µM (inactive).

For the molecule `COc1cc(C2c3cc(O)c(OC)cc3C3OCC2C3CO)ccc1O` (stereo not given), the GI50 in the experiment on A498 is > 100 µM (inactive); with ACHN, > 100 µM (inactive); with HCC 2998, > 100 µM (inactive); with HCT-116, 76.9 µM (inactive); in the experiment on HT-29, > 100 µM (inactive); in the experiment with LOX IMVI, > 100 µM (inactive). The GI50 in the experiment with M14, in the experiment on MOLT-4, in the experiment with NCI-H226, in the experiment on NCI/ADR-RES, in the experiment on OVCAR-3 and in the experiment with OVCAR-4 was > 100 µM (inactive) throughout. The GI50 in the experiment with RXF 393, in the experiment on SK-MEL-2, in the experiment with SK-MEL-5, in the experiment with SNB-19 and with UO-31 was > 100 µM (inactive) in each case.

As to `CC1=C(O)C(=O)C2C(=O)C1C1Cc3ccccc3C21` (stereo not given), the GI50 in the experiment on A498, in the experiment on ACHN, in the experiment on CCRF-CEM, in the experiment with HCC 2998, in the experiment on HT-29 and in the experiment with IGROV-1 was > 100 µM (inactive) in each case. Besides, the GI50 in the experiment on LOX IMVI, in the experiment with M14, in the experiment with MOLT-4, in the experiment with NCI-H226, in the experiment with OVCAR-3 and in the experiment on OVCAR-4 was > 100 µM (inactive) each time. The GI50 in the experiment on RXF 393, in the experiment on SK-MEL-2, in the experiment with SK-MEL-5, with SNB-19 and in the experiment on UO-31 was > 100 µM (inactive) each time.

With `Cc1c(C(=O)/C=C/c2ccccc2O)c(=O)n(-c2ccccc2)n1C`, the GI50 was 27.5 µM (inactive) in the experiment on A498; 19 µM (inactive) in the experiment on ACHN; 9.55 µM (inactive) in the experiment on CCRF-CEM; 16 µM (inactive) in the experiment on HCC 2998; 16.5 µM (inactive) in the experiment on HCT-116; 35.5 µM (inactive) with HT-29. The GI50 with IGROV-1 was 42.1 µM (inactive); with LOX IMVI, 16.9 µM (inactive); with MOLT-4, 19.3 µM (inactive); in the experiment with NCI-H226 it was 33.5 µM (inactive); with OVCAR-3 it was 29.2 µM (inactive); in the experiment on RXF 393, 14.2 µM (inactive). Also, the GI50 is 18 µM (inactive) in the experiment on SK-MEL-2, 12.3 µM (inactive) in the experiment on SK-MEL-5, 43.8 µM (inactive) in the experiment on SNB-19 and > 10 µM (inactive) in the experiment with UO-31.

Consider `O=C1CC(c2ccccc2)NCN1` (stereo not given), for which the GI50 in the experiment with A498, in the experiment with ACHN, in the experiment with CCRF-CEM, in the experiment on HCC 2998, with HCT-116 and in the experiment on HT-29 was > 100 µM (inactive) in each case. For the same molecule, the GI50 in the experiment on IGROV-1, with LOX IMVI, in the experiment on M14, in the experiment with MOLT-4, in the experiment with NCI-H226 and in the experiment on OVCAR-3 was > 100 µM (inactive) throughout. The GI50 in the experiment with OVCAR-4, in the experiment on RXF 393, with SK-MEL-2, with SK-MEL-5, in the experiment with SNB-19 and in the experiment on UO-31 was > 100 µM (inactive) throughout.

On to `CCc1cc(CCC(=O)Nc2c(C)cccc2C)n[nH]1`, for which the GI50 in the experiment with A498, with ACHN, in the experiment with CCRF-CEM, with HCC 2998, with HCT-116 and with HT-29 was > 100 µM (inactive) throughout. In addition, the GI50 with IGROV-1, in the experiment on M14, in the experiment with MOLT-4, in the experiment with NCI-H226, with OVCAR-3 and in the experiment on OVCAR-4 was > 100 µM (inactive) in each case. Besides, the GI50 with RXF 393, in the experiment with SK-MEL-2, in the experiment on SK-MEL-5, in the experiment on SNB-19 and with UO-31 was > 100 µM (inactive) each time.

As for `O=C(O)c1c2c(c(C(=O)O)c3ccccc13)-c1ccccc1-2`, the GI50 with A498 is 44.1 µM (inactive); in the experiment on ACHN, 30.8 µM (inactive); in the experiment with CCRF-CEM it was 32.5 µM (inactive); in the experiment on HCC 2998, 37.1 µM (inactive); with HCT-116, 78.9 µM (inactive); with HT-29 it was 47.4 µM (inactive). Moreover, the GI50 was > 10 µM (inactive) in the experiment on IGROV-1; 38.4 µM (inactive) in the experiment on LOX IMVI; 47.5 µM (inactive) in the experiment with M14; 39.5 µM (inactive) in the experiment with MOLT-4; 34 µM (inactive) in the experiment with NCI-H226; 27.5 µM (inactive) in the experiment with OVCAR-3. The GI50 with RXF 393 is 21.9 µM (inactive); in the experiment on SK-MEL-2 it was 33.3 µM (inactive); with SNB-19 it was 36.6 µM (inactive); in the experiment on UO-31, 28.1 µM (inactive).
